Measured values reported in EP0873131B1, “PROCESSES FOR PREPARATION OF RG3 AND RG5 GINSENOSIDES” (Cheil Je Dang Co., priority 1995, dated 1997).

Assays:
[1] = test system: Human umbilical vein endothelium cells(HUVEC); assay: Cytotoxicity to HUVEC cells (MTT, 48 hours); type: cell-based; conditions: for cytotoxicity: compared with solvent alone (Rg3: dimethylsulfoxide; Rg5: distilled water)
Protocol: Human umbilical vein endothelium cells(HUVEC) cultured in M199 medium were suspended in physiological saline to a concentration of 20000 cells/180µl. The cell suspension was introduced into each well of 96-well plate in an amount of 180µl, and then 20µl of dimethylsulfoxide as a solvent or the same volume of Rg3 dissolved in dimethylsulfoxide was added thereto. The plate was incubated for 48 hours in a cell-incubator of 37°C while keeping 5% CO2. Then, 50µl of MTT(3-(4,5-dimethyl-thiazol-2'-yl)-2,5-diphenyltetrazolium bromide) dissolved in phosphate buffered solution in a concentration of 2mg/ml was added thereto and incubated again for 4 hours under the same condition as mentioned above. Thereafter, the supernatant was removed and 200µl of dimethylsulfoxide was added to measure the absorbance at 540nm. The absorbance measured was converted into cell number to determine IC50 of dimethylsulfoxide solvent and Rg3 which is the concentration to inhibit the cell growth by 50% and can be used as an index of cytotoxicity.
Human umbilical vein endothelium cells(HUVEC) cultured in M199 medium were suspended in physiological saline to a concentration of 20000 cells/180µl. The cell suspension was introduced into each well of 96-well plate in an amount of 180µl, and then 20µl of distilled water as a solvent or the same volume of Rg5 dissolved in distilled water was added thereto. The plate was incubated for 48 hours in a cell-incubator of 37°C while keeping 5% CO2. Then, 50µl of MTT(3-(4,5-dimethyl-thiazol-2'-yl)-2,5-diphenyltetrazolium bromide) dissolved in phosphate buffered solution in a concentration of 2mg/ml was added thereto and incubated again for 4 hours under the same condition as mentioned above. Thereafter, the supernatant was removed and 200µl of dimethylsulfoxide was added to measure the absorbance at 540nm.

[2] = test system: aortic rings; assay: Vasodilation of phenylephrine-contracted rat thoracic aortic rings (organ chamber, isometric tension); set-up: species or system Sprague-Dawley(SD) rats; conditions: for effect to the blood vessel without endothelium / relaxation to the blood vessel with endothelium: aortic rings contracted by 10^-6M phenylephrine; for effect to the blood vessel without endothelium: endothelium removed mechanically; for relaxation to the blood vessel with endothelium: substance alone; for relaxation to the blood vessel with endothelium / vasodilation in the presence of methylene blue(MB) / vasodilation in the presence of nitro-L-arginine(NLA): with endothelium; for vasodilation in the presence of methylene blue(MB): together with 10^-6M methylene blue(MB), an inhibitor of soluble guanylate cyclase; for vasodilation in the presence of nitro-L-arginine(NLA): together with 10^-6M nitro-L-arginine(NLA), an inhibitor of nitric oxide synthase
Protocol: Sprague-Dawley(SD) rats weighing 300-400g were sacrificed and their thoracic aortae were removed quickly, and then placed in a Krebs-Ringer-sodium bicarbonate solution (control solution, NaCl 118.3; KCl 4.7; MgSO4 1.2; KH2PO4 1.2; CaCl2 2.5; NaHCO3 25.0; CaEDTA 0.016 and glucose 11.1mM). Blood within the aortae, adipose and connective tissues surrounding the blood vessel were removed and then the clean aortae were cut down to prepare the aortic rings having 2-3mm length. The aortic rings were suspended vertically in an organ chamber filled with 25ml of control solution (pH 7.4). In some aortic rings, the endothelium was removed mechanically by rolling the rings 7 to 8 times on a tissue towel with pincette. The bottom of aortic ring was fixed to the organ chamber and the top thereof was connected to a transducer coupler through stirrups for recording of isometric tension.
To the aortic rings showing a stable contraction induced by addition of 10^-6M phenylephrine to the organ chamber was added ginsenoside Rg3 or Rg5-dimethylsulfoxide solution alone or together with 10^-6M methylene blue(MB) or 10^-6M nitro-L-arginine(NLA) in order to observe the vasodilation thereof. The degree of contraction by 10^-6M phenylephrine was set to 100% and the degree of relaxation caused by ginsenoside Rg3 or Rg5 was represented as percent(%) with respect thereto.
Vasodilation of the processed panaxadiol saponin fraction obtained in Example 7 as mentioned above was determined according to the same experimental procedure as Test Example 1.

Molecule: CC(C)=CC/C=C(\C)[C@H]1CC[C@]2(C)[C@@H]1[C@H](O)C[C@@H]1[C@@]3(C)CC[C@H](O[C@@H]4O[C@H](CO)[C@@H](O)[C@H](O)[C@H]4O[C@@H]4O[C@H](CO)[C@@H](O)[C@H](O)[C@H]4O)C(C)(C)[C@@H]3CC[C@]12C [ginsenoside Rg5]
- cytotoxicity [1]: no cytotoxicity
- effect to the blood vessel without endothelium [2]: no effect
- relaxation to the blood vessel with endothelium [2]: concentration-dependent relaxation
- vasodilation in the presence of methylene blue(MB) [2]: significantly inhibited
- vasodilation in the presence of nitro-L-arginine(NLA) [2]: significantly inhibited

Molecule: ginsenoside Rg3
- cytotoxicity [1]: lower cytotoxicity than the solvent
- IC50 (concentration to inhibit the cell growth by 50%) ([1]; dissolved in dimethylsulfoxide): 26.7 mg/L
- effect to the blood vessel without endothelium [2]: no effect
- relaxation to the blood vessel with endothelium [2]: concentration-dependent relaxation
- vasodilation in the presence of methylene blue(MB) [2]: significantly inhibited
- vasodilation in the presence of nitro-L-arginine(NLA) [2]: significantly inhibited
